Source: ChEMBL document CHEMBL5506015, “Discovery of a Meisoindigo-Derived PROTAC as the ATM Degrader: Revolutionizing Colorectal Cancer Therapy via Synthetic Lethality with ATR Inhibitors” (J Med Chem, 2024)
Active and inactive are the calls of the source. The calls are words filed in the database; no cut-off is given here.

Legend:
SW-620 [1] = experiment: Downregulation of BCL2 level in human SW620 cells at 1.25 to 10 uM measured after 12 hrs by immunoblot analysis; assay type: functional, cell-based; conditions: dose 1.25-10 µM
A2780 = experiment: Cytotoxicity against human A2780 cells assessed as reduction in cell viability incubated for 48 hrs by MTT assay; conditions: A2780, 48 h
SW13 = experiment: Cytotoxicity against human SW13 cells assessed as reduction in cell viability incubated for 48 hrs by MTT assay; conditions: SW13, 48 h
NCI-H358 = experiment: Cytotoxicity against human NCI-H358 cells assessed as reduction in cell viability incubated for 48 hrs by MTT assay; conditions: NCI-H358, 48 h
SW480 [2] = experiment: Cytotoxicity against human SW480 cells assessed as reduction in cell viability incubated for 48 hrs by MTT assay; conditions: SW480, 48 h
RKO = experiment: Cytotoxicity against human RKO cells assessed as reduction in cell viability incubated for 48 hrs by MTT assay
HCT-116 [3] = experiment: Cytotoxicity against human HCT-116 cells assessed as reduction in cell viability incubated for 48 hrs by MTT assay; conditions: HCT-116, 48 h
K562 [4] = experiment: Cytotoxicity against human K562 cells assessed as reduction in cell viability incubated for 48 hrs by MTT assay; conditions: K562, 48 h
SW480 [5] = experiment: Induction of apoptosis in human SW480 cells measured after 12 hrs by Annexin V-FITC/propidium iodide staining-based flow cytometric analysis; assay type: functional, cell-based; conditions: dose 5-10 µM
SW480 [6] = experiment: Downregulation of BCL2 level in human SW480 cells at 1.25 to 10 uM measured after 12 hrs by immunoblot analysis; assay type: functional, cell-based; conditions: dose 1.25-10 µM
SW480 [7] = experiment: Upregulation of cleaved caspase 3 level in human SW480 cells at 1.25 to 10 uM measured after 12 hrs by immunoblot analysis; assay type: functional, cell-based; conditions: dose 1.25-10 µM
K562 [8] = experiment: Upregulation of cleaved caspase 3 level in human K562 cells at 5 to 20 uM measured after 8 hrs by immunoblot analysis; assay type: functional, cell-based; conditions: dose 5-20 µM
SW-620 [9] = experiment: Downregulation of PROX1 level in human SW620 cells measured after 12 hrs by immunoblot analysis; assay type: functional, cell-based; conditions: dose 1.25-10 µM
SW-620 [10] = experiment: Downregulation of PROX1 level in human SW620 cells at 10 uM measured after 12 hrs in presence of tert-butyl ((S)-1-((2S,4R)-4-hydroxy-2-((4-(4-methylthiazol-5-yl)benzyl)carbamoyl)pyrrolidin-1-yl)-3,3-dimethyl-1-oxobutan-2-yl)carbamate by immunoblot analysis; assay type: functional, cell-based
[11] = Downregulation of ATM level in human SW620 cells transfected with NC shRNA by immunoblot analysis; assay type: functional, SW-620
[12] = Downregulation of ATM level in human SW620 cells transfected with ATM shRNA by immunoblot analysis; assay type: functional, SW-620
[13] = Downregulation of ATM level in human SW480 cells transfected with NC shRNA by immunoblot analysis; assay type: functional
[14] = Downregulation of ATM level in human HCT-116 cells transfected with NC shRNA by immunoblot analysis; assay type: functional
[15] = Downregulation of ATM level in human HCT-116 cells transfected with ATM shRNA by immunoblot analysis; assay type: functional
SW-620 [16] = experiment: Cytotoxicity against human SW620 cells transfected with ATM shRNA assessed as reduction in cell viability measured after 48 hrs by MTT assay; conditions: SW-620, 48 h
SW480 [17] = experiment: Cytotoxicity against human SW480 cells transfected with NC shRNA assessed as reduction in cell viability measured after 48 hrs by MTT assay; conditions: SW480, 48 h
HCT-116 [18] = experiment: Cytotoxicity against human HCT-116 cells transfected with ATM shRNA assessed as reduction in cell viability measured after 48 hrs by MTT assay; conditions: HCT-116, 48 h
SW-620 [19] = experiment: Induction of DNA damage in human SW620 cells assessed as accumulation of phosphorylated-chk2 (Thr68) at 10 uM by immunoblot analysis; assay type: functional, cell-based; conditions: time <= 24.0 hrs, TDE = time-dependent effect
K562 [20] = experiment: Induction of DNA damage in human K562 cells assessed as accumulation of phosphorylated-chk2 (Thr68) at 20 uM by immunoblot analysis; assay type: functional, cell-based; conditions: time <= 12.0 hrs, TDE = time-dependent effect
K562 [21] = experiment: Induction of DNA damage in human K562 cells assessed as gamma-H2AX accumulation at 20 uM by immunoblot analysis; assay type: functional, cell-based; conditions: time <= 12.0 hrs, TDE = time-dependent effect
SW-620 [22] = experiment: Induction of DNA damage in human SW620 cells assessed as gamma-H2AX accumulation incubated for 12 hrs by immunoblot analysis; assay type: functional, cell-based; conditions: dose 2.5-10 µM
K562 [23] = experiment: Induction of DNA damage in human K562 cells assessed as gamma-H2AX accumulation at 20 uM incubated for 8 hrs by immunoblot analysis; assay type: functional, cell-based
SW-620 [24] = experiment: Potentiation of AZD6738 induced DNA damage in human SW620 cells assessed as gamma-H2AX accumulation in nuclei at 5 uM incubated for 12 hrs by immunohistochemical staining based analysis; assay type: functional, cell-based
SW-620 [25] = experiment: Antitumor activity against human SW620 cells xenografted in Balb/c nude mouse model assessed as reduction in tumor load at 15 mg/kg/day administered for 14 days by vernier caliper based analysis; assay type: functional, organism-based; conditions: time 14.0 day
[26] = Toxicity in Balb/c nude mouse assessed as drug tolerance at 15 mg/kg/day administered for 14 days in presence of AZD6738; assay type: organism-based; conditions: in vivo, 336 h, time 14 day
SW-620 [27] = experiment: Antitumor activity against human SW620 cells xenografted in Balb/c nude mouse model assessed as increase in gamma-H2AX at 15 mg/kg/day measured after 14 days by Western blot analysis; assay type: functional, organism-based; conditions: time 14.0 day
SW-620 [28] = experiment: Antitumor activity against human SW620 cells xenografted in Balb/c nude mouse model assessed as decrease in pro caspase 3 level at 15 mg/kg/day measured after 14 days by Western blot analysis; assay type: functional, organism-based; conditions: time 14.0 day
SW-620 [29] = experiment: Antitumor activity against human SW620 cells xenografted in Balb/c nude mouse model assessed as decrease in cleaved caspase 3 level at 15 mg/kg/day measured after 14 days by Western blot analysis; assay type: functional, organism-based; conditions: time 14.0 day
SW-620 [30] = experiment: Antitumor activity against human SW620 cells xenografted in Balb/c nude mouse model assessed as increase in gamma-H2AX level at 15 mg/kg/day measured after 14 days by Western blot analysis; assay type: functional, organism-based; conditions: time 14.0 day
SW-620 [31] = experiment: Antitumor activity against human SW620 cells xenografted in Balb/c nude mouse model assessed as inflammatory cell infiltration at 15 mg/kg/day measured after 14 days by H and E staining based analysis; assay type: functional, organism-based; conditions: time 14.0 day
SW-620 [32] = experiment: Antitumor activity against human SW620 cells xenografted in Balb/c nude mouse model assessed as fibrosis at 15 mg/kg/day measured after 14 days by H and E staining based analysis; assay type: functional, organism-based; conditions: time 14.0 day
SW-620 [33] = experiment: Downregulation of ATM level in human SW620 cells at 10 uM by immunoblot analysis; assay type: functional, cell-based; conditions: time <= 24.0 hrs, TDE = time-dependent effect
SW480 [34] = experiment: Downregulation of ATM level in human SW480 cells at 10 uM by immunoblot analysis; assay type: functional, cell-based; conditions: time <= 12.0 hrs, TDE = time-dependent effect
K562 [35] = experiment: Downregulation of ATM level in human K562 cells at 20 uM by immunoblot analysis; assay type: functional, cell-based; conditions: time <= 24.0 hrs, TDE = time-dependent effect
SW-620 [36] = experiment: Downregulation of ATM level in human SW620 cells measured after 12 hrs by immunoblot analysis; assay type: functional, cell-based; conditions: dose 2.5-10 µM
SW480 [37] = experiment: Downregulation of ATM level in human SW480 cells measured after 12 hrs by immunoblot analysis; assay type: functional, cell-based; conditions: dose 1.25-10 µM
K562 [38] = experiment: Downregulation of ATM level in human K562 cells measured after 8 hrs by immunoblot analysis; assay type: functional, cell-based; conditions: dose 5-20 µM

With `Cc1ncsc1-c1ccc(CNC(=O)[C@@H]2C[C@@H](O)CN2C(=O)[C@@H](NC(=O)CCCCCn2cc(CCCN3C(=O)/C(=C4/C(=O)Nc5ccccc54)c4ccccc43)nn2)C(C)(C)C)cc1` the Activity (SW-620 [1]) was “Active”, the IC50 (A2780) was 3.96 µM and the IC50 (SW13) was 3.31 µM. The IC50 (NCI-H358) was greater than 20 µM, the IC50 (SW480 [2]) was 2.59 µM and the IC50 (RKO) was 3.95 µM. The IC50 (HCT-116 [3]) was 5.82 µM, the IC50 (K562 [4]) was 4.06 µM and the Activity (SW480 [5]) was “Dose-Dependent Effect”. The Activity (SW480 [6]) was “Active”, the Activity (SW480 [7]) was “Active” and the Activity (K562 [8]) was “Active”. The Activity (SW-620 [9]) was “Dose-Dependent Effect”, the Activity (SW-620 [10]) was “Active” and the Activity [11] was 100%. It also gave an Activity [12] of 25%, an Activity [13] of 100% and an Activity [14] of 100%. It also gave an Activity [15] of 15%, an IC50 (SW-620 [16]) of 9.81 µM and an IC50 (SW480 [17]) of 2.59 µM. For the same compound, the IC50 (HCT-116 [18]) was 26.4 µM, the Activity (SW-620 [19]) was “Tde” and the Activity (K562 [20]) was “Tde”. For the same compound, the Activity (K562 [21]) was “Tde”, the Activity (SW-620 [22]) was “Dose-Dependent Effect” and the Activity (K562 [23]) was “Active”. The Activity (SW-620 [24]) was “Active”, the Activity (SW-620 [25]) was “Active” and the Activity [26] was “Non-Toxic”. For the same compound, the Activity (SW-620 [27]) was “Active”, the Activity (SW-620 [28]) was “Active” and the Activity (SW-620 [29]) was “Active”. For the same compound, the Activity (SW-620 [30]) was “Active”, the Activity (SW-620 [31]) was “Active” and the Activity (SW-620 [32]) was “Active”. For the same compound, the Activity (SW-620 [33]) was “Tde”, the Activity (SW480 [34]) was “Tde” and the Activity (K562 [35]) was “Tde”. The Activity (SW-620 [36]) was “Dose-Dependent Effect”, the Activity (SW480 [37]) was “Dose-Dependent Effect” and the Activity (K562 [38]) was “Dose-Dependent Effect”.
